Key:
[1] = system: patient with lower back pain and emotional pain due to anger with poorly-performing employees; experiment: Example 10 case study, patient diary; assay type: in vivo, human
Text: A person building contractor with a history of lower back pain reported emotional pain due to frustration with their three employees' poor job performance. […] Treatment with naltrexone and acetaminophen eliminated their physical, as well as their emotional pain, which happened overnight.

[2] = system: patients with low back pain (LBP); experiment: Naltrexone/acetaminophen open-label pilot study for low back pain, daily patient diary (WPI, API, WEP, PRSI, insomnia, PGIC, energy, activity); assay type: in vivo, human
Procedure: Twenty patients of whom 16 had chronic low back pain (CLBP), three had acute LBP and one had pain due to Temporomandibular disorders (TMD) were evaluated in an open label pilot study. […] The patient reported diary questionnaire included the following questions.
Question No. 1: Choose one number that best describes the “Worst Pain” in your lower back in the last 24 hours (WPI) [measured on an 11-point NRS (0=no pain, 10=worst pain possible)].
Question No. 2: Choose one number that best describes the “Average Pain” in your lower back in the last 24 hours (API) [measured on an 11-point NRS (0=no pain, 10=worst pain possible)].
Question No. 3: Choose one number that best describes the “Worst Emotional Pain” you experienced in the last 24 hours. (E.g., “Today, I experienced hurt feelings, and/or anger, and/or fear, and/or sadness”).
Question No. 4: Choose one number that best describes how pain has interfered with your sleep in the last 24 hours [Pain Related Sleep Interference (PRSI) measured on an 11-point NRS (0=no interference, 10=complete interference)].
Question No. 5: Have you experienced difficulty sleeping or falling asleep (insomnia) in the last 24 hours [measured on an 11-point NRS (0=no insomnia, 10=worst insomnia possible)].

[3] = system: patient with emotional pain due to relationship break-up; experiment: Example 11 case study, patient diary; assay type: in vivo, human; settings: APAP 325 mg Q.I.D., Sep. 25-Oct. 2, 2015
[4] = system: patient with lower back and leg pain and emotional pain due to separation from a child; experiment: Example 12 case study, patient diary; settings: for API, average pain intensity (0-10 NRS) / Insomnia (0-10 NRS) / PRSI, Pain Related Sleep Interference (0-10 NRS) / WEP, Worst Emotional Pain (0-10 NRS) / WPI, Worst Pain Intensity (0-10 NRS): Ibuprofen 800 mg T.I.D. PRN 2006-2010
[5] = system: patient with emotional pain due to football team losses and low back pain; experiment: Example 4 case study, patient diary; assay type: in vivo, human
[6] = system: patient with chronic low back pain, tendinitis and fear from a near airplane crash; experiment: Example 5 case study; assay type: in vivo, human; settings: acetaminophen and ibuprofen prior to study; naltrexone 2.25 mg and acetaminophen 325 mg Q.I.D
[7] = system: patient with lower back pain and emotional pain due to conflict at work; experiment: Example 7 case study; assay type: in vivo, human; settings: acetaminophen 4 times, one day, naltrexone 2.25 mg and Tylenol 325 mg twice daily
[8] = system: patient with emotional pain due to severe pain caused by acute spinal disk herniation; experiment: Example 6 case study, patient diary; assay type: in vivo, human
Procedure: They scheduled an elective inguinal hernia surgery during a time that they had already planned time off from work for their spouse and themself. […] The day after the incident, they took acetaminophen 3000 mg. […] They were in the process of purchasing a home, which they found stressful.

[9] = system: migraine; settings: literature, Brandes et al. JAMA 2007; cited from earlier work
[10] = system: patient with emotional pain due to adjustment disorder, grieving passing of a pet; experiment: Example 2 case study, emotional pain diary on 4-point scale (0=none, 1=mild, 2=moderate, 3=severe); assay type: in vivo, human; settings: xanax before study treatment
Text: The patient experienced a stressful life event (bereavement) that interfered with social functioning. […] The emotional pain intensity was rated on a 4-point unipolar scale (0=none, 1=mild, 2=moderate, 3=severe).

[11] = APAP 325 mg Q.I.D., Sep. 29-Oct. 1, 2015
[12] = acetaminophen for three days, naltrexone and acetaminophen, overnight
[13] = on treatment, last day, APAP 325 mg alone (N = 8, avg 9.83 days), NTX/APAP 2.25/325 mg (n = 18, avg 25.4 days)
[14] = treatment period, APAP 325 mg alone, NTX/APAP 2.25/325 mg
[15] = Naltrexone 2.25 mg Q.I.D./Clonidine 0.025 mg Q.I.D. 2010-2015, APAP 325 mg Q.I.D. Jun. 29-Jul. 6, 2015, Naltrexone 2.5 mg Q.I.D. to Jul. 8, 2015, Naltrexone 2.25 mg/APAP 325 mg Q.I.D. Jul. 9-Oct. 4, 2015
[16] = APAP 325 mg Q.I.D. Jun. 29-Jul. 8, 2015, NTX 2.25 mg/APAP 325 mg Q.I.D. Jul. 9-Aug. 9, 2015
[17] = APAP 325 mg Q.I.D., NTX 2.25 mg/APAP 325 mg Q.I.D.
[18] = APAP 1000 mg TID, Aug. 18-19, 2015
[19] = acetaminophen 3000 mg, the day after the incident

Question: With `CC(=O)Nc1ccc(O)cc1` [acetaminophen] as the molecule, how does the “API, average pain intensity (0-10 NRS)” value [1, 11] read?
Answer: The value was 2.5.

Question: And the “Insomnia (0-10 NRS)” value [1, 11]?
Answer: Its value is 2.

Question: And the “PGIC (1-7 Likert)” value [1, 11]?
Answer: Its value is 5.

Question: What about the “PRSI, Pain Related Sleep Interference (0-10 NRS)” value [1, 11] of the same molecule?
Answer: The value was 4.

Question: What about the “WEP, Worst Emotional Pain (0-10 NRS)” value [1, 11] of the same molecule?
Answer: Its value is 3.

Question: What about the “WPI, Worst Pain Intensity (0-10 NRS)” value [1, 11] of the same molecule?
Answer: Its value is 4.

Question: What about the “back/physical pain (patient report)” value [1, 12] of the same molecule?
Answer: The value was “improved their back pain”.

Question: What about the “emotional pain (patient report)” value [1, 12] of the same molecule?
Answer: The value was “remained unchanged”.

Question: What about the “API Avg., average pain intensity (0-10 NRS)” value [2, 13] of the same molecule?
Answer: Its value is 4.25.

Question: And the “Activity Avg., change in activity level (1-7 Likert)” value [2, 13]?
Answer: The value was 4.67.

Question: What about the “Energy Avg., change in energy level (1-7 Likert)” value [2, 13] of the same molecule?
Answer: Its value is 4.67.

Question: What about the “Insomnia Avg. (0-10 NRS)” value [2, 13] of the same molecule?
Answer: The value was 4.33.

Question: And the “PGIC Avg., Patient Global Impression of Change (1-7 Likert, 7 = very much improved)” value [2, 13]?
Answer: The value was 5.00.

Question: And the “PRSI Avg., Pain Related Sleep Interference (0-10 NRS)” value [2, 13]?
Answer: The value was 4.00.

Question: What about the “WEP Avg., Worst Emotional Pain (0-10 NRS)” value [2, 13] of the same molecule?
Answer: The value was 5.17.

Question: What about the “WPI Avg., Worst Pain Intensity (0-10 NRS)” value [2, 13] of the same molecule?
Answer: Its value is 5.25.

Question: And the “Mean Improvement from Baseline, API (0-10 NRS)” value [2, 14]?
Answer: The value was 1.28.

Question: And the “Mean Improvement from Baseline, Insomnia (0-10 NRS)” value [2, 14]?
Answer: The value was −0.23.

Question: And the “Mean Improvement from Baseline, PRSI (0-10 NRS)” value [2, 14]?
Answer: Its value is 0.90.

Question: What about the “Mean Improvement from Baseline, WEP (0-10 NRS)” value [2, 14] of the same molecule?
Answer: Its value is 0.14.

Question: What about the “Mean Improvement from Baseline, WPI (0-10 NRS)” value [2, 14] of the same molecule?
Answer: The value was 1.43.

Question: What about the “API, average pain intensity (0-10 NRS)” value [3] of the same molecule?
Answer: The value was 5.

Question: And the “Insomnia (0-10 NRS)” value [3]?
Answer: The value was 10.

Question: And the “PGIC (1-7 Likert)” value [3]?
Answer: Its value is 5.

Question: What about the “PRSI, Pain Related Sleep Interference (0-10 NRS)” value [3] of the same molecule?
Answer: Its value is 3.5.

Question: And the “WEP, Worst Emotional Pain (0-10 NRS)” value [3]?
Answer: Its value is 10.

Question: And the “WPI, Worst Pain Intensity (0-10 NRS)” value [3]?
Answer: The value was 7.

Question: And the “API, average pain intensity (0-10 NRS)” value [4, 15]?
Answer: Its value is 3.5.

Question: What about the “Insomnia (0-10 NRS)” value [4, 15] of the same molecule?
Answer: The value was 5.5.

Question: What about the “PRSI, Pain Related Sleep Interference (0-10 NRS)” value [4, 15] of the same molecule?
Answer: Its value is 4.5.

Question: And the “WEP, Worst Emotional Pain (0-10 NRS)” value [4, 15]?
Answer: The value was 5.0.

Question: And the “WPI, Worst Pain Intensity (0-10 NRS)” value [4, 15]?
Answer: Its value is 4.5.

Question: And the “PGIC (1-7 Likert)” value [4, 15]?
Answer: Its value is 5.

Question: And the “emotional pain due to separation from child (patient report)” value ([4]; naltrexone/clonidine, acetaminophen 325 mg four times daily 5 days, naltrexone alone 12 days, naltrexone 2.25 mg and acetaminophen 325 mg four times daily almost three months)?
Answer: Its value is “same level of emotional pain”.

Question: What about the “API, average pain intensity (0-10 NRS)” value [5, 16] of the same molecule?
Answer: Its value is 3.

Question: What about the “Insomnia (0-10 NRS)” value [5, 16] of the same molecule?
Answer: The value was 0.

Question: What about the “PRSI, Pain Related Sleep Interference (0-10 NRS)” value [5, 16] of the same molecule?
Answer: Its value is 0.

Question: What about the “WEP, Worst Emotional Pain (0-10 NRS)” value [5, 16] of the same molecule?
Answer: Its value is 2.

Question: And the “WPI, Worst Pain Intensity (0-10 NRS)” value [5, 16]?
Answer: The value was 3.

Question: What about the “Improvement from baseline, API” value [5, 17] of the same molecule?
Answer: Its value is 25%.

Question: What about the “Improvement from baseline, WEP” value [5, 17] of the same molecule?
Answer: Its value is 33%.

Question: And the “Improvement from baseline, WPI” value [5, 17]?
Answer: The value was 40%.

Question: And the “ability to handle emotional disturbance due to team losses” value ([5]; Tylenol 325 mg, 4 times daily for 10 days)?
Answer: The value was “did not report improvement”.

Question: What about the “elimination/reduction of emotional and physical pain symptoms” value ([5]; naltrexone and acetaminophen for one month, acetaminophen alone) of the same molecule?
Answer: The value was 25%-40%.

Question: And the “relief of physical pain (low back, foot)” value [6]?
Answer: The value was “without significant relief”.

Question: What about the “emotional pain (patient report)” value [7] of the same molecule?
Answer: The value was “did not notice a change”.

Question: And the “back pain (patient report)” value ([7]; within three days)?
Answer: The value was “slight improvement”.

Question: What about the “API, average pain intensity (0-10 NRS)” value [8, 18] of the same molecule?
Answer: Its value is 8.

Question: And the “Insomnia (0-10 NRS)” value [8, 18]?
Answer: Its value is 9.

Question: What about the “PGIC (1-7 Likert)” value [8, 18] of the same molecule?
Answer: Its value is 5.

Question: What about the “PRSI, Pain Related Sleep Interference (0-10 NRS)” value [8, 18] of the same molecule?
Answer: The value was 9.

Question: What about the “WEP, Worst Emotional Pain (0-10 NRS)” value [8, 18] of the same molecule?
Answer: Its value is 6.

Question: And the “WPI, Worst Pain Intensity (0-10 NRS)” value [8, 18]?
Answer: The value was 9.

Question: And the “emotional pain (NRS)” value [8, 19]?
Answer: The value was 6 /10.

Question: What about the “insomnia improved by” value [8, 19] of the same molecule?
Answer: Its value is 1 point.

Question: What about the “pain level improved by” value [8, 19] of the same molecule?
Answer: The value was 1 point.

Question: For `CNS(=O)(=O)Cc1ccc2[nH]cc(CCN(C)C)c2c1` [sumatriptan], which “2-hour headache (migraine) pain-free” value [9] is on record?
Answer: The value was 25%.

Question: What does the source list for `CC(C)Cc1ccc(C(C)C(=O)O)cc1` (stereo not shown) [Ibuprofen]?
Answer: API, average pain intensity (0-10 NRS) [4, 15]: 5.5; Insomnia (0-10 NRS) [4, 15]: 9; PRSI, Pain Related Sleep Interference (0-10 NRS) [4, 15]: 7; WEP, Worst Emotional Pain (0-10 NRS) [4, 15]: 7; WPI, Worst Pain Intensity (0-10 NRS) [4, 15]: 6; relief of physical pain (low back, foot) [6]: without significant relief

Question: With `Cc1nnc2n1-c1ccc(Cl)cc1C(c1ccccc1)=NC2` [xanax] as the molecule, how does the “relief of emotional pain (patient report)” value [10] read?
Answer: Its value is “did not help”.

Source: patent US11058680B2, “Combinations of opioid/TLR4 antagonists and acetaminophen for use in the treatment of emotional pain and insomnia” (Allodynic Threapeutics, LLC, priority 2016, dated 2021)
